This passage reports IC50 results from patent publication US9351974B2, “Substituted pteridinones for the treatment of cancer” (OSI Pharmaceuticals, LLC, priority 2011, dated 2016).

Molecules are shown by their SMILES.

This test deals with T1, His-tagged full-length RSK2 (RPS6KA3) (Homo sapiens, UniProt P51812).
T1 construct: His-tagged full-length RSK2 (RPS6KA3, Invitrogen PV3323); His; purchased Invitrogen PV3323
T1 sequence (P51812 whole entry): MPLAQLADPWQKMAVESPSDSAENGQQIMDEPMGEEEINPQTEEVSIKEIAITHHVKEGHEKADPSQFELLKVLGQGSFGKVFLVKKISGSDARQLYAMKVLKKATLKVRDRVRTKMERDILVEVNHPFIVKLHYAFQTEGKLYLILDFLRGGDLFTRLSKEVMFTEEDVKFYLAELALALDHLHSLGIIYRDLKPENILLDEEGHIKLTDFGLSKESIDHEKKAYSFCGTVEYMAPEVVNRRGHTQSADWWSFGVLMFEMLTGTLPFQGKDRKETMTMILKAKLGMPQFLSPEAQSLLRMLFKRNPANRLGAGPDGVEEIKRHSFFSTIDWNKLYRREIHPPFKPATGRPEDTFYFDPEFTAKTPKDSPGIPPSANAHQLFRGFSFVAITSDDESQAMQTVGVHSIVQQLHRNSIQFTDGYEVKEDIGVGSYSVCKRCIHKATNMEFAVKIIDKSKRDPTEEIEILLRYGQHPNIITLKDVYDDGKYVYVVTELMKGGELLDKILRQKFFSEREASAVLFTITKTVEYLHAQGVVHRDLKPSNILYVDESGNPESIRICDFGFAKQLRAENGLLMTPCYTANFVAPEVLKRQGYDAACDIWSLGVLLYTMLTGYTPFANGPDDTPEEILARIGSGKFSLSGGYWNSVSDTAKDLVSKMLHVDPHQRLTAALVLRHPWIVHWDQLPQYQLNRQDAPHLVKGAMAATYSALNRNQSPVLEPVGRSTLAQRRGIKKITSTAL
Nature of the test: RSK2 Omnia Assay for compound IC50 determination. The test is classed as biochemical. Conditions: ATP 15 μM, n=2, read-out: Mean RSK2 Biochem IC50. A digest of the protocol:
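Initial-rate slopes from continuous kinetic reads were fitted to a four-parameter equation for IC50 (n=2). Ki was then derived by Cheng-Prusoff assuming ATP-competitive inhibition. Reactions contained 15 μM ATP (Km 16.3 μM), 5 μM Omnia ST Peptide 6, and […] in 50 mM HEPES pH 7.5, 10 mM MgCl2, 1 mM DTT, 1% DMSO. Compounds spanned 11 threefold steps, […] final.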
As for `Cc1ccc(N2C(=O)[C@@H](C)N(C3CCCCC3)c3nc(Nc4ccc5[nH]ncc5c4)ncc32)cn1` [compound 113, (7R)-8-cyclohexyl-2-(1H-indazol-5-ylamino)-7-methyl-5-(6-methylpyridin-3-yl)-7,8-dihydropteridin-6(5H)-one], the IC50 was ≤ 100 nM. The result for `C[C@@H]1C(=O)N(c2cccc([S+](C)[O-])c2)c2cnc(Nc3ccc4[nH]ncc4c3)nc2N1C1CCCCC1` (stereo partly drawn) [compound 114, (7R)-8-cyclohexyl-2-(1H-indazol-5-ylamino)-7-methyl-5-[3-(methylsulfinyl)phenyl]-7,8-dihydropteridin-6(5H)-one] reads ≤ 100 nM; that for `C[C@@H]1C(=O)N(c2cccc(C#N)c2)c2cnc(Nc3ccc4[nH]nc(F)c4c3)nc2N1C1CCCCC1` [compound 115, 3-[(7R)-8-cyclohexyl-2-[(3-fluoro-1H-indazol-5-yl)amino]-7-methyl-6-oxo-7,8-dihydropteridin-5(6H)-yl]benzonitrile], ≤ 100 nM. `COc1n[nH]c2ccc(Nc3ncc4c(n3)N(C3CCCCC3)[C@H](C)C(=O)N4c3cccc(C#N)c3)cc12` [compound 116, 3-[(7R)-8-cyclohexyl-2-[(3-methoxy-1H-indazol-5-yl)amino]-7-methyl-6-oxo-7,8-dihydropteridin-5(6H)-yl]benzonitrile]: the IC50 is ≤ 100 nM. Take `Cc1c(Nc2ncc3c(n2)N(C2CCCCC2)[C@H](C)C(=O)N3c2cccc(C#N)c2)ccc2[nH]ncc12` [compound 117, 3-[(7R)-8-cyclohexyl-7-methyl-2-[(4-methyl-1H-indazol-5-yl)amino]-6-oxo-7,8-dihydropteridin-5(6H)-yl]benzonitrile]: the IC50 was 100 to 1000 nM.

In the case of `C[C@@H]1C(=O)N(c2cccc(C#N)c2)c2cnc(Nc3cc4cn[nH]c4cc3Cl)nc2N1C1CCCCC1` [compound 118, 3-[(7R)-2-[(6-chloro-1H-indazol-5-yl)amino]-8-cyclohexyl-7-methyl-6-oxo-7,8-dihydropteridin-5(6H)-yl]benzonitrile], the IC50 is ≤ 100 nM. To `COc1cc2[nH]ncc2cc1Nc1ncc2c(n1)N(C1CCCCC1)[C@H](C)C(=O)N2c1cccc(C#N)c1` [compound 119, 3-[(7R)-8-cyclohexyl-2-[(6-methoxy-1H-indazol-5-yl)amino]-7-methyl-6-oxo-7,8-dihydropteridin-5(6H)-yl]benzonitrile] belongs > 1000 nM; to `C[C@@H]1C(=O)N(c2cccc(F)c2)c2cnc(Nc3ccc4[nH]ncc4c3F)nc2N1C1CCCCC1` [compound 120, (7R)-8-cyclohexyl-2-[(4-fluoro-1H-indazol-5-yl)amino]-5-(3-fluorophenyl)-7-methyl-7,8-dihydropteridin-6(5H)-one], ≤ 100 nM; to `Cc1ccc(N2C(=O)[C@@H](C)N(C3CCCCC3)c3nc(Nc4ccc5[nH]ncc5c4)ncc32)cc1F` [compound 121, (7R)-8-cyclohexyl-5-(3-fluoro-4-methylphenyl)-2-(1H-indazol-5-ylamino)-7-methyl-7,8-dihydropteridin-6(5H)-one], ≤ 100 nM. As to `C[C@@H]1C(=O)N(c2cccnc2)c2cnc(Nc3ccc4[nH]ncc4c3F)nc2N1C1CCCCC1` [compound 122, (7R)-8-cyclohexyl-2-[(4-fluoro-1H-indazol-5-yl)amino]-7-methyl-5-(pyridin-3-yl)-7,8-dihydropteridin-6(5H)-one], the IC50 was ≤ 100 nM. To `COc1cc(Nc2ncc3c(n2)N(C2CCCCC2)[C@H](C)C(=O)N3c2cccc(C#N)c2)cc2cn[nH]c12` [compound 123, 3-[(7R)-8-cyclohexyl-2-[(7-methoxy-1H-indazol-5-yl)amino]-7-methyl-6-oxo-7,8-dihydropteridin-5(6H)-yl]benzonitrile] belongs 100 to 1000 nM; to `C[C@@H]1C(=O)N(c2csc(C(=O)O)c2)c2cnc(Nc3ccc4[nH]ncc4c3)nc2N1C1CCCCC1` [compound 124, 4-[(7R)-8-cyclohexyl-2-(1H-indazol-5-ylamino)-7-methyl-6-oxo-7,8-dihydropteridin-5(6H)-yl]thiophene-2-carboxylic acid], ≤ 100 nM; to `COc1cc(N2C(=O)[C@@H](C)N(C3CCCCC3)c3nc(Nc4ccc5[nH]ncc5c4)ncc32)ccc1C` [compound 125, (7R)-8-cyclohexyl-2-(1H-indazol-5-ylamino)-5-(3-methoxy-4-methylphenyl)-7-methyl-7,8-dihydropteridin-6(5H)-one], ≤ 100 nM. As to `C[C@@H]1C(=O)N(c2cccc(CO)c2)c2cnc(Nc3ccc4[nH]ncc4c3)nc2N1C1CCCCC1` [compound 127, (7R)-8-cyclohexyl-5-[3-(hydroxymethyl)phenyl]-2-(1H-indazol-5-ylamino)-7-methyl-7,8-dihydropteridin-6(5H)-one], the IC50 is ≤ 100 nM. In the case of `C[C@@H]1C(=O)N(c2cncc(C#N)c2)c2cnc(Nc3ccc4[nH]ncc4c3)nc2N1C1CCCCC1` [compound 128, 5-[(7R)-8-cyclohexyl-2-(1H-indazol-5-ylamino)-7-methyl-6-oxo-7,8-dihydropteridin-5(6H)-yl]pyridine-3-carbonitrile], the IC50 is ≤ 100 nM.

On to `C[C@@H]1C(=O)N(c2ccc(N(C)C)nc2)c2cnc(Nc3ccc4[nH]ncc4c3)nc2N1C1CCCCC1` [compound 129, (7R)-8-cyclohexyl-5-[6-(dimethylamino)pyridin-3-yl]-2-(1H-indazol-5-ylamino)-7-methyl-7,8-dihydropteridin-6(5H)-one], for which the IC50 is ≤ 100 nM.

As for `C[C@@H]1C(=O)N(c2cccc(C#N)c2)c2cnc(Nc3cc(F)c4[nH]ncc4c3F)nc2N1C1CCCCC1` [compound 130, 3-[(7R)-8-cyclohexyl-2-[(4,7-difluoro-1H-indazol-5-yl)amino]-7-methyl-6-oxo-7,8-dihydropteridin-5(6H)-yl]benzonitrile], the IC50 was ≤ 100 nM. For `C[C@@H]1C(=O)N(c2cccc(C#N)c2)c2cnc(Nc3cc(F)c4[nH]nc(F)c4c3)nc2N1C1CCCCC1` [compound 131, 3-[(7R)-8-cyclohexyl-2-[(3,7-difluoro-1H-indazol-5-yl)amino]-7-methyl-6-oxo-7,8-dihydropteridin-5(6H)-yl]benzonitrile], the IC50 was ≤ 100 nM.

`COc1ccc(N2C(=O)[C@@H](C)N(C3CCCCC3)c3nc(Nc4cc(F)c5[nH]ncc5c4)ncc32)cc1OC` [compound 132, (7R)-8-cyclohexyl-5-(3,4-dimethoxyphenyl)-2-[(7-fluoro-1H-indazol-5-yl)amino]-7-methyl-7,8-dihydropteridin-6(5H)-one]: the IC50 was ≤ 100 nM. For `C[C@@H]1C(=O)N(c2ccc3cccnc3c2)c2cnc(Nc3cc(F)c4[nH]ncc4c3)nc2N1C1CCCCC1` [compound 133, (7R)-8-cyclohexyl-2-[(7-fluoro-1H-indazol-5-yl)amino]-7-methyl-5-(quinolin-7-yl)-7,8-dihydropteridin-6(5H)-one], the IC50 was ≤ 100 nM. As for `C[C@@H]1C(=O)N(c2cccnc2)c2cnc(Nc3cc(F)c4[nH]ncc4c3)nc2N1C1CCCCC1` [compound 135, (7R)-8-cyclohexyl-2-[(7-fluoro-1H-indazol-5-yl)amino]-7-methyl-5-(pyridin-3-yl)-7,8-dihydropteridin-6(5H)-one], the IC50 was ≤ 100 nM. For the molecule `COc1ccc(N2C(=O)[C@@H](C)N(C3CCCCC3)c3nc(Nc4cc(F)c5[nH]ncc5c4)ncc32)cc1C#N` [compound 136, 5-[(7R)-8-cyclohexyl-2-[(7-fluoro-1H-indazol-5-yl)amino]-7-methyl-6-oxo-7,8-dihydropteridin-5(6H)-yl]-2-methoxybenzonitrile], the IC50 is ≤ 100 nM.
